The record followed here is patent publication US20250332173A1, “COMPOUNDS AND METHODS FOR MODULATING NUCLEIC ACID SPLICING” (REMIX THERAPEUTICS INC., priority 2021, published 2025).

What all share (assay type): cell-based, human
In one experiment the test system is SMN2 mRNA. Put plainly: RT-qPCR splicing assay, SMN2 canonical junction (CJ) mRNA. As to conditions: Homo sapiens; Table 5 panel; canonical junction qPCR; compound concentration having 50% response in CJ decrease; read-out: SMN2 IC50 (decrease in CJ mRNA levels). In a few lines:
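Canonical exon-exon junction transcript levels measured by one-step RT-qPCR of cell lysates, normalized to a housekeeping gene (GAPDH, GUSB or PPIA). Cells used were A673 or K562, exposed for 24 h to compound in 11-point, 3-fold series from 10 uM, with final DMSO at or below 0.25%.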
(In qPCR the cycle at which signal appears reflects the starting amount.)

Another experiment relates to HTT. Put plainly: HiBiT protein abundance assay, HTT HiBiT K562 cell line. As to conditions: HiBiT K562 cell line, 24 hours, top dose 10 μM; read-out: Effect on protein abundance, HTT (IC50 category). The method, boiled down:
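K562 knock-in lines with endogenous HiBiT-tagged target, 10,000 cells/well in IMDM + FBS, treated 24 h at 37° C with 10-point 3-fold dilutions (top 10 μM final; DMSO ≤0.25%). Lytic Nano-Glo HiBiT luminescence normalized to untagged K562 baseline and DMSO controls; IC50 = concentration giving 50% abundance via four-parameter fit.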
In general terms: HiBiT is a short tag that completes a luciferase, so light tracks the accessible tagged protein.

A further experiment concerns Target C. Kind of experiment: HiBiT protein abundance assay, Target C (Promega Nano-Glo HiBiT Lytic Detection System, knock-in K562 cell line). As to conditions: Homo sapiens, K562, 24 h, HiBiT K562 cell line, 24 hours, top dose 10 μM; read-out: Effect on protein abundance, Target C (IC50 category). The method, boiled down:
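Knock-in K562 cells carrying HiBiT-tagged Target C, 10,000 per well, treated 24 h at 37 °C with 10-point threefold dilutions (top 10 μM final, ≤0.25% DMSO). Lytic HiBiT luminescence read; response normalised to unmodified K562 and DMSO controls, four-parameter fit interpolated at 50% for IC50.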

SMILES strings stand for the structures.

The term IC50 denotes the midpoint of a concentration-inhibition curve. In the case of `CNc1cc(-c2cc(F)c3nc(C)cn3c2)cc2ncn(C3CCNCC3)c(=O)c12` [Compound 358, 7-{8-fluoro-2-methylimidazo[1,2-a]pyridine-6-yl}-5-(methylamino)-3-(piperidin-4-yl)quinazolin-4-one], the IC50 in the experiment on SMN2 mRNA lay within 100 to 1000 nM; in the experiment on HTT, 1000 to 10000 nM; with Target C it was 1000 to 10000 nM.
With `CNc1cc(-c2cc(C)c3nc(C)cn3n2)cc2ncn(C3CCNCC3)c(=O)c12` [Compound 359, 7-{2,8-dimethylimidazo[1,2-b]pyridazin-6-yl}-5-(methylamino)-3-(piperidin-4-yl)quinazolin-4-one], the values for the IC50 in the experiment with SMN2 mRNA, in the experiment with HTT and in the experiment with Target C were less than 100 nM, 100 to 1000 nM and 1000 to 10000 nM, respectively.
The corresponding values for `CNc1cc(-c2cn3cc(C)nc3c(C)n2)cc2ncn(C3CCNCC3)c(=O)c12` [Compound 360, 7-{2,8-dimethylimidazo[1,2-a]pyrazine-6-yl}-5-(methylamino)-3-(piperidin-4-yl)quinazolin-4-one] are 1000 to 10000 nM, more than 10000 nM and more than 10000 nM.
The corresponding values for `Cc1cc(-c2cc(F)c3c(=O)n(C4CCNC5(CC5)C4)cnc3c2)nc2cn(C)nc12` (stereo not drawn) [Compound 361, 3-{4-azaspiro[2.5]octan-7-yl}-7-{2,7-dimethylpyrazolo[4,3-b]pyridin-5-yl}-5-fluoroquinazolin-4-one] are less than 100 nM, less than 100 nM and less than 100 nM.
On to `Cc1cn2nc(-c3cc(O)c4c(=O)n(C5CCNC5)cnc4c3)cc(C)c2n1` (stereo not drawn) [Compound 362, 7-{2,8-dimethylimidazo[1,2-b]pyridazin-6-yl}-5-hydroxy-3-(pyrrolidin-3-yl)quinazolin-4-one], for which the IC50 in the experiment with SMN2 mRNA is 100 to 1000 nM; in the experiment on HTT it was more than 10000 nM; in the experiment with Target C, more than 10000 nM.
In the case of `CNc1cc(-c2cc(C#N)c3nc(C)cn3c2)cc2ncn(C3CCNCC3)c(=O)c12` [Compound 363, 2-methyl-6-[5-(methylamino)-4-oxo-3-(piperidin-4-yl)quinazolin-7-yl]imidazo[1,2-a]pyridine-8-carbonitrile], the IC50 in the experiment with SMN2 mRNA is 1000 to 10000 nM; in the experiment with HTT, more than 10000 nM; in the experiment with Target C it was 1000 to 10000 nM.
